Values quoted from earlier work in patent publication US20210324434A1, “METHOD FOR PRODUCING RARE SUGAR-CONTAINING COMPOSITION AND RARE SUGAR-CONTAINING COMPOSITION” (NATIONAL UNIVERSITY CORPORATION KAGAWA UNIVERSITY, priority 2018, published 2021).

Columns and labels:
[1] = relative to sugar
[2] = already known

Compound | sweetness intensity, % of that of sugar [1] | result of an acute oral toxicity test [2]
O=C(CO)[C@@H](O)[C@H](O)[C@H](O)CO [D-fructose] | about 170% | –
O=C[C@H](O)[C@@H](O)[C@H](O)[C@H](O)CO [D-glucose] | about 70% | –
O=C(CO)[C@H](O)[C@H](O)[C@H](O)CO [D-psicose] | about 70% | ≥ 5,000 mg/kg
